Results on one molecule are retold here after paper PMC6938345, “Inhibition of complement activation, myeloperoxidase, NET formation and oxidant activity by PIC1 peptide variants” (PLoS ONE, 2019).

Data set [1] in a line: Total Antioxidant Capacity (TAC) assay. The method, then:
The TAC (Total Antioxidant Capacity) Assay (Cell Biolabs, Inc, San Diego, CA) was used to measure the antioxidant capacity of the sarcosine variants based on the reduction of copper (II) to copper (I). The kit protocol was performed as recommended.
Antioxidant activity is measured in copper reducing equivalents (CRE). Peptides were tested over a range of concentrations from 0.03–0.25 mM then compared to the standard. Data are the means of n = 3 independent experiments + SEM.

In data set [2] the test system is antibody-initiated complement activation (type O sera + type AB red blood cells). The data set is described as follows: ABO incompatibility hemolytic assay (CH50-type, ex vivo). It is filed as cell-based, human. The note with it: peptides 1.8 mM. The method, then:
For hemolytic complement assays, human red blood cells (RBCs) from type AB donors were purified, washed and standardized to 1 × 10^9 cells/ml, as previously described. Human sera from type O donors at a 20% final concentration was combined with 1 mM PIC1 or sarcosine variant peptides and the volume was brought up to 0.15 ml with GVBS^++ and 0.5 ml RBCs. For factor B-depleted sera hemolytic assays, a final of 0.005% factor B depleted sera was incubated with 1 mM PIC1 or sarcosine variant peptides with 0.1 ml antibody-sensitized sheep red blood cells (EA) in a final volume of 0.75 ml GVBS^++. The samples were incubated for 1 hour at 37 °C and then 1.0 ml of GVBS^-—was added to the factor B-depleted samples to stop the reaction. The samples were spun at 3,000 rpm for 5 minutes and the supernatant was collected and read at 412 nm. Values are represented as a percent of the positive control, which consists of human O sera and AB red blood cells in GVBS^++ buffer.
In order to evaluate the extent to which the peptide variants inhibit antibody-initiated complement activation, we tested them in two hemolytic assays including an ABO incompatibility ex vivo assay (Fig 1A) and a classical pathway CH50-type assay in factor B-depleted sera (Fig 1B). In the ABO incompatibility hemolytic assay, purified erythrocytes from a ‘type AB+’ donor are incubated with sera from a ‘type O’ subject containing anti-A and anti-B antibodies; peptides were tested at 1.8 mM. […] We then performed a CH50-type hemolytic assay, with antibody-sensitized sheep erythrocytes, isolating the classical pathway by utilizing factor B-depleted sera; peptides were tested at 0.4 mM.
Fig 1 Sarcosine variant inhibition of complement activation in hemolytic assays and C1q binding. A) Inhibition of ABO incompatibility hemolysis in a CH50-type assay. Peptides are at a final concentration of 1.8 mM. […] Data are the means of n = 4 independent experiments + SEM. B) Inhibition of classical complement pathway-mediated hemolysis in factor B-depleted sera in a CH50-type assay. Peptides are at a final concentration of 0.4 mM. Data are the means of n = 4 independent experiments + SEM. C) Binding of increasing concentrations of sarcosine variants to purified C1q in an ELISA-type assay. Data are the means of n = 3 independent experiments ± SEM. D) Half-maximal binding concentrations were calculated for each peptide’s binding curve.

The nature of data set [3]: Peptide solubility in water. How it is done:
(PA) (Table 1) were synthesized by New England Peptide (Gardner, MA) to >90% purity. Sarcosine variants and PEG were dissolved in water and the pH was adjusted with NaOH. PA was dissolved in DMSO and then brought up to the final concentration with water resulting in 30% DMSO and pH adjusted. Antibody sensitized sheep erythrocytes (EA), purified C1q and factor B-depleted human sera were purchased from Complement Technology (Tyler, TX). Purified myeloperoxidase was purchased from Lee BioSolutions (Maryland Heights, MO) and tetramethylbenzidine (TMB) and PicoGreen were purchased from Thermo Fisher (Waltham MA).
(PA), peptide derivatives were synthesized with sarcosine residues substituted at all 15 positions, included a peptide in which the vicinal cysteines at positions 9 and 10 (C9,C10) were replaced with a single sarcosine residue (Table 1).

Data set [4] has as its system purified human neutrophils. The data set is described as follows: NETosis assay, free DNA by PicoGreen. To be noted: Average of n = 3; peptide 2 mM. The class given is cell-based. The method, then: NETosis assays with immune complexes were performed as previously described. Briefly, normal human serum was stimulated with ovalbumin-antiovalbumin immune complexes in GVBS^++ for 30 minutes at 37 °C. This mixture along with 0.05% H2O2 was then added to purified human neutrophils resuspended in RPMI with or without sarcosine variants (2 mM), allowing NETosis to occur. Quantitation of free DNA released from the neutrophils was performed using PicoGreen. Slides were stained with DAPI (Southern Biotech, Birmingham, AL) and the following antibodies, mouse anti-elastase (Invitrogen, Carlsbad, CA) was used with the secondary goat anti-mouse Alexa Fluor 568 (Novus Biologicals, Centennial, CO) and rabbit anti-histone H3 (Abcam, Cambridge MA) with goat anti-rabbit Alexa Fluor 488 (Novus Biologicals) to visualize formation of NETs which were imaged with fluorescence microscopy with an Olympus BX53 microscope.
In this assay purified human neutrophils are stimulated with normal human serum activated with ovalbumin-antiovalbumin immune complexes and hydrogen peroxide. Free DNA expressed from the neutrophils is then measured in a PicoGreen assay.
Fig 5 Sarcosine variant inhibition of NET formation. Fluorescence microscopy images of NET formation after neutrophil stimulation with immune complexes (IC) and hydrogen peroxide (H2O2) compared with neutrophil only control. Variant I8 inhibition of NET formation is shown in the third row. Histones are probed with anti-histone antibody (αhistone), neutrophil elastase is probed with anti-neutrophil elastase (αNE) and DNA is stained with DAPI. Representative images are shown. […] Purified human neutrophils were stimulated with 2% normal human sera pre-incubated with ovalbumin-antiovalbumin immune complexes, and 0.05% H2O2. Sarcosine peptides and PIC1 were added to the sera to a final concentration of 2 mM. Data are the means of n = 3 independent experiments + SEM.

A further data set has as its target T1, MPO heme ring (Homo sapiens, UniProt P05164).
T1 construct: purchased Lee BioSolutions (Maryland Heights, MO)
T1 sequence (P05164 49-745): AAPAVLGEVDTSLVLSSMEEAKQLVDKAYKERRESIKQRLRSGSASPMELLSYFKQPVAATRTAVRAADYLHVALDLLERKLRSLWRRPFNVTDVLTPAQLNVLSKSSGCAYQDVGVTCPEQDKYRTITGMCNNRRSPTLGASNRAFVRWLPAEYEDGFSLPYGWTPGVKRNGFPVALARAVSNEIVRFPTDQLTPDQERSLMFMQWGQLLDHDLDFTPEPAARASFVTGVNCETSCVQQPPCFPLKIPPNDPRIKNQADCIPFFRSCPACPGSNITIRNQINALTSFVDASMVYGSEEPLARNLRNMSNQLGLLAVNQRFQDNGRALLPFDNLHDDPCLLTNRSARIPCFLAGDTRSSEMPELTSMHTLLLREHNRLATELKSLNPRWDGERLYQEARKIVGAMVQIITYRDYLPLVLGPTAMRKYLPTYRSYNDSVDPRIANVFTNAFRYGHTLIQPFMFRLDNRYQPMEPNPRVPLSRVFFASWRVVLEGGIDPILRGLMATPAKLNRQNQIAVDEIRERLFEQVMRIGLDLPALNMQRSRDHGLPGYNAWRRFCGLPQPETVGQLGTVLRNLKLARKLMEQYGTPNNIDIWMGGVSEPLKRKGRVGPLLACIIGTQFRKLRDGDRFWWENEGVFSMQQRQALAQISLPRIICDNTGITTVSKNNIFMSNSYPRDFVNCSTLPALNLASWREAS
The data set is described as follows: MPO heme ring oxidative degradation. It is filed as biochemical. To be noted: peptides 3.0 mM, H2O2, absorbance 300-550 nm. How it is done:
In a 96 well plate, 0.025 ml of 1.7 mg/ml MPO was combined with 0.00125 ml of 0.5% H2O2 and 3 mM PIC1 or sarcosine variant peptides in a total volume of 0.125 ml PBS and left to incubate at room temperature for 2 minutes. Using a 96 well plate reader, the wells were scanned for absorbance from 300–550 nm to generate curves reflecting the iron state in the MPO heme ring, as previously reported.
We then evaluated the ability of the variants to prevent degradation of the heme ring in the MPO molecule. […] This can be evaluated via spectrometric measurements of absorption of wavelengths from 300–550 nm. Absorption measurements were made over this spectrum for all variants (Fig 3A–3H). […] The heme ring preservation for these two variants was greater than that for the parent compound, PA-dPEG24.
Fig 3 Sarcosine variant protection of MPO heme ring from oxidative degradation. Absorbance spectra for the heme ring is shown in the absence of hydrogen peroxide (MPO) in red, in the presence of hydrogen peroxide (MPO+H2O2) in black, in the presence of peptide in blue, and in the presence of hydrogen peroxide and peptide together in green. […] B-H) Peptides A2 – C9,10 are denoted in the legends. Peptides were tested at a concentration of 3.0 mM.

As for `CC[C@H](C)[C@H](N)C(=O)N[C@@H](C)C(=O)N[C@@H](CC(C)C)C(=O)N[C@H](C(=O)N[C@@H](CC(C)C)C(=O)N[C@@H](CCC(=O)O)C(=O)N1CCC[C@H]1C(=O)N[C@H](C(=O)N(C)CC(=O)N[C@@H](CS)C(=O)N[C@@H](CCC(N)=O)C(=O)N[C@@H](CCC(=O)O)C(=O)N[C@@H](CCCNC(=N)N)C(=O)N[C@@H](C)C(=O)N[C@@H](C)C(=O)O)[C@@H](C)CC)[C@@H](C)CC` [C9], the “TAC assay, antioxidant activity” value in data set [1] (Avg of n = 3) is given as 845.83 copper reducing equivalents (CRE). Also, the “antioxidant capacity (in words)” value in data set [1] (TAC assay) was “approximately half of the antioxidant capacity as PA-dPEG24”. The ABO hemolysis in data set [2] (Avg of n = 4, concentration basis of PIC1 not stated) is listed as 18.25 % of Control. Further, the “inhibition of ABO incompatible hemolysis (in words)” value in data set [2] is “to a greater extent than did the PA-dPEG24”. The “solubility in water (in words)” value in data set [3] was “soluble in water”. In data set [4], the “PICO green - NETs, free DNA release” value is 38. The “protection of MPO heme ring from degradation (in words)” value on MPO heme ring was “near perfect preservation”.
